# Measured values taken from patent US12435061B2 (priority 2020, dated 2025).
# pIC50: −log10 of the molar value.
# Columns and labels:
# [1] = molecular target: T1, hTRPV3 (Homo sapiens (Human), UniProt Q8NET8); experiment: hTRPV3 HAMA IC50 assay (Hamamatsu FDSS6000 calcium flux, TRex-293 cells)
# Method: IC50s were calculated using CBIS from ChemInnovation (San Diego).
# [2] = molecular target: T1, hTRPV3; experiment: Whole-cell patch clamp, hTRPV3 Phase 1 / Phase 2 currents; assay type: cell-based
# Method in brief: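 Currents are activated by 20 μM 2-APB or by perfusate at 28 °C or warmer, in Ringer's solution, and quantified at ±80 mV.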
# [3] = Aqueous solubility assay in Normal Ringer Solution; details: Normal Ringer Solution; for solubility at 40 min: saline or isotonic, kinetic from dmso stock; for Solubility Ringer (nM): room temperature
# Method: Following vortex and incubation for a sufficient time (e.g. 40 minutes at room temperature), solutions were filtered, quenched with acetonitrile, and analyzed by Liquid Chromotography. Solubility Limits were determined by comparison to a standard curve.
# [4] = Phase 1 current, inward, whole-cell patch clamp, read-out: hTRPV3 Patch P1 Inwd
# [5] = Phase 1 current, read-out: hTRPV3 (nM) (Phase 1)
# [6] = Phase 2 current, inward, whole-cell patch clamp, read-out: hTRPV3 Patch P2 Inwd
# [7] = Phase 2 current, read-out: hTRPV3 (nM) (Phase 2)
# T1 sequence (Q8NET8 whole entry): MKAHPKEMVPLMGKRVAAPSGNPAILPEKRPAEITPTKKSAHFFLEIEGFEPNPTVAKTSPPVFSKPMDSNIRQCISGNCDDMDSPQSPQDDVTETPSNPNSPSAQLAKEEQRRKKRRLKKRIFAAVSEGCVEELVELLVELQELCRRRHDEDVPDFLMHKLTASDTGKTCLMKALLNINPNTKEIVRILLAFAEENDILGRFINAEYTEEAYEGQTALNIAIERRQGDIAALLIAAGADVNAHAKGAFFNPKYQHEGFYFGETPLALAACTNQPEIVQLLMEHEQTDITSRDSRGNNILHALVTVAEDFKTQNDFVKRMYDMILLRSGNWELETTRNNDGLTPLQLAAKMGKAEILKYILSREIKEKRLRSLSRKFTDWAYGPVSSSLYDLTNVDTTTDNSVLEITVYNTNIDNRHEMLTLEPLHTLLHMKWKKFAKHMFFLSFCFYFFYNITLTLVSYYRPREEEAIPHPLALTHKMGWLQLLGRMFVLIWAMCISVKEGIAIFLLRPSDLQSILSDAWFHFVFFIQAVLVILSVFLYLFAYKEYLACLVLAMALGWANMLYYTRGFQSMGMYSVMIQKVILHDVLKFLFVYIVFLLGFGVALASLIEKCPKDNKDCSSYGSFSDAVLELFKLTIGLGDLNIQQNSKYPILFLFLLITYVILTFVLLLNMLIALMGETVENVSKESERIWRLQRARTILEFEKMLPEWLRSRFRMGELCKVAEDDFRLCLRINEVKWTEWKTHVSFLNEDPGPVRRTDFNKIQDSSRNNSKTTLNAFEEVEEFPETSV
SMILES,hTRPV3 HAMA IC50 (nM) (5 min) ([1]; 5 min),hTRPV3 HAMA IC50 (nM) (30 min) ([1]; 30 min),"pIC50 [2, 4]","IC50 [2, 5] [nM]","pIC50 [2, 6]","IC50 [2, 7] [nM]",other results
"Cc1ccc(O[C@H]2CCN(c3ccc(-c4ccccc4CN(C)C)cc3CO)C2)nc1 [Compound 1-219, (S)-(2′-((dimethylamino)methyl)-4-(3-(5-methylpyridin-2-yloxy)pyrrolidin-1-yl)biphenyl-3-yl)methanol]",no fit (5 min) no fit (30 min),no fit (5 min) no fit (30 min),–,–,–,–,IC50 ([2]; hTRPV3 Patch P1 Inwd (nM)): > 1000 nM; IC50 ([2]; read-out: hTRPV3 (nM) (Phase 1)): > 3200 nM; solubility at 40 min [3]: > 20 µM
OCCCc1cc(-c2ccccc2Cl)ccc1N1CC[C@H](Oc2ccc(C(F)(F)F)cn2)C1 [Compound 1-164],no fit (5 min),–,6.00 to 7.00,190,–,–,Solubility Ringer (nM) [3]: BLQ
"OCc1ccc(-c2ccccc2)cc1N1CC[C@H](Oc2ccc(C(F)(F)F)cn2)C1 [Compound 1-180, (S)-(3-(3-(5-(trifluoromethyl)pyridin-2-yloxy)pyrrolidin-1-yl)biphenyl-4-yl)methanol]",no fit (5 min) no fit (30 min),no fit (5 min) no fit (30 min),< 6.00,1550,< 6.00,1860,solubility at 40 min [3]: ~0.2 µM
"OCc1cc(-c2ccccc2OC(F)(F)F)ccc1N1CC[C@H](Oc2ccc(C(F)(F)F)cn2)C1 [Compound 1-161, (S)-(2′-(trifluoromethoxy)-4-(3-(5-(trifluoromethyl)pyridin-2-yloxy)pyrrolidin-1-yl)biphenyl-3-yl)methanol]",no fit (5 min),–,7.00 to 8.00,93.4,–,–,Solubility Ringer (nM) [3]: BLQ
N#Cc1cc(C(F)(F)F)ccc1N1CC[C@H](Oc2ccc(C(F)(F)F)cn2)C1 [Compound 1-57],no fit (5 min),–,6.00 to 7.00,706,6.00 to 7.00,219,Solubility Ringer (nM) [3]: BLQ
"OCCc1cc(Oc2ccccc2Cl)ccc1N1CC[C@H](Oc2ncccc2Cl)C1 [Compound 1-238, (S)-2-(5-(2-chlorophenoxy)-2-(3-(3-chloropyridin-2-yloxy)pyrrolidin-1-yl)phenyl)ethanol]",–,–,7.00 to 8.00,~51,–,–,"IC50 ([1]; hTRPV3 HAMA IC50 (nM) (5 min), 5 min): > 20000 nM; IC50 ([1]; hTRPV3 HAMA IC50 (nM) (30 min), 30 min): 16700 nM; Solubility Ringer (nM) [3]: BLQ"
"COc1ccccc1-c1ccc(N2CC[C@H](Oc3ccc(C(F)(F)F)cn3)C2)c(CO)n1 [Compound 1-183, (S)-(6-(2-methoxyphenyl)-3-(3-(5-(trifluoromethyl)pyridin-2-yloxy)pyrrolidin-1-yl)pyridin-2-yl)methanol]",no fit (5 min) no fit (30 min),no fit (5 min) no fit (30 min),–,–,< 6.00,> 3200,solubility at 40 min [3]: 0.84 µM
"Cc1ccccc1-c1ccc(N2CC[C@H](Oc3ccc(C(F)(F)F)cn3)C2)c(CO)c1 [Compound 1-128, (S)-(2′-methyl-4-(3-(5-(trifluoromethyl)pyridin-2-yloxy)pyrrolidin-1-yl)biphenyl-3-yl)methanol]",no fit (5 min),–,6.00 to 7.00,114,–,–,Solubility Ringer (nM) [3]: BLQ
"COc1ccccc1-c1ccc(N2CC[C@H](Oc3ncccc3C)C2)c(CO)n1 [Compound 1-186, (S)-(6-(2-methoxyphenyl)-3-(3-(3-methylpyridin-2-yloxy)pyrrolidin-1-yl)pyridin-2-yl)methanol]",no fit (5 min) no fit (30 min),no fit (5 min) no fit (30 min),< 6.00,1010,6.00 to 7.00,980,–
"OCc1ncc(-c2ccccc2)cc1N1CC[C@H](Oc2ccc(C(F)(F)F)cn2)C1 [Compound 1-188, (S)-(5-phenyl-3-(3-(5-(trifluoromethyl)pyridin-2-yloxy)pyrrolidin-1-yl)pyridin-2-yl)methanol]",no fit (5 min) no fit (30 min),no fit (5 min) no fit (30 min),< 6.00,> 3200,–,–,–
"OCc1ccc(-c2ccccc2Cl)cc1N1CC[C@H](Oc2ccc(C(F)(F)F)cn2)C1 [Compound 1-225, (S)-(2′-chloro-3-(3-(5-(trifluoromethyl)pyridin-2-yloxy)pyrrolidin-1-yl)biphenyl-4-yl)methanol]",no fit (5 min) no fit (30 min),no fit (5 min) no fit (30 min),6.00 to 7.00,215,–,–,–
"CCOC(=O)COc1cc(-c2ccccc2)ccc1N1CC[C@H](Oc2ccc(C(F)(F)F)cn2)C1 [Compound 1-134, (S)-ethyl 2-(4-(3-(5-(trifluoromethyl)pyridin-2-yloxy)pyrrolidin-1-yl)biphenyl-3-yloxy)acetate]",no fit (5 min),–,< 6.00,~4820,< 6.00,> 3200,–
"Cc1ccccc1Oc1ccc(CO)c(N2CC[C@H](Oc3ccc(C(F)(F)F)cn3)C2)c1 [Compound 1-230, (S)-(4-(o-tolyloxy)-2-(3-(5-(trifluoromethyl)pyridin-2-yloxy)pyrrolidin-1-yl)phenyl)methanol]",no fit (5 min) no fit (30 min),no fit (5 min) no fit (30 min),6.00 to 7.00,198,–,–,–
"NC(=O)c1cc(-c2ccccc2)ccc1N1CC[C@H](Oc2ccc3cc(Cl)ccc3n2)C1 [Compound 1-67, (S)-4-(3-(6-chloroquinolin-2-yloxy)pyrrolidin-1-yl)biphenyl-3-carboxamide]",no fit (5 min),–,< 6.00,1270,6.00 to 7.00,585,Solubility Ringer (nM) [3]: BLQ
"Cc1ccc(O[C@H]2CCN(c3ccc(-c4ccccn4)cc3CO)C2)nc1 [Compound 1-220, (S)-(2-(3-(5-methylpyridin-2-yloxy)pyrrolidin-1-yl)-5-(pyridin-2-yl)phenyl)methanol]",no fit (5 min) no fit (30 min),no fit (5 min) no fit (30 min),< 6.00,> 3200,–,–,–
"CCc1ccccc1-c1ccc(N2CC[C@H](Oc3ncccc3C)C2)c(CO)n1 [Compound 1-187, (S)-(6-(2-ethylphenyl)-3-(3-(3-methylpyridin-2-yloxy)pyrrolidin-1-yl)pyridin-2-yl)methanol]",no fit (5 min) no fit (30 min),no fit (5 min) no fit (30 min),6.00 to 7.00,720,< 6.00,~1000,–
"OCc1ccc(-c2ccccc2Cl)cc1N1CC[C@H](Oc2ncccc2Cl)C1 [Compound 1-234, (S)-(2′-chloro-3-(3-(3-chloropyridin-2-yloxy)pyrrolidin-1-yl)biphenyl-4-yl)methanol]",no fit (5 min) no fit (30 min),no fit (5 min) no fit (30 min),6.00 to 7.00,737,–,–,–
"FC(F)(F)c1ccc(O[C@H]2CCN(c3ccccc3-c3ccccc3)C2)nc1 [Compound 1-27, (S)-2-(1-(biphenyl-2-yl)pyrrolidin-3-yloxy)-5-(trifluoromethyl)pyridine]",no fit (5 min),–,< 6.00,> 3200,–,–,–
"Cc1ccccc1-c1ccc(CO)c(N2CC[C@H](Oc3ncccc3Cl)C2)c1 [Compound 1-240, (S)-(3-(3-(3-chloropyridin-2-yloxy)pyrrolidin-1-yl)-2′-methylbiphenyl-4-yl)methanol]",no fit (5 min) no fit (30 min),no fit (5 min) no fit (30 min),6.00 to 7.00,934,–,–,–
"Nc1cc(-c2ccccc2)ccc1N1CC[C@H](Oc2ccc3cc(Cl)ccc3n2)C1 [Compound 1-71, (S)-4-(3-(6-chloroquinolin-2-yloxy)pyrrolidin-1-yl)biphenyl-3-amine]",no fit (5 min),–,–,> 3200,–,> 3200,"IC50 ([2]; hTRPV3 Patch P1 Inwd (nM), Phase 1 current, inward, whole-cell patch clamp): > 1000 nM; IC50 ([2]; hTRPV3 Patch P2 Inwd (nM), Phase 2 current, inward, whole-cell patch clamp): > 1000 nM"
"O=[N+]([O-])c1cc(-c2ccccc2)ccc1N1CC[C@H](Oc2ccc3cc(Cl)ccc3n2)C1 [Compound 1-70, (S)-6-chloro-2-(1-(3-nitrobiphenyl-4-yl)pyrrolidin-3-yloxy)quinoline]",no fit (5 min),–,< 6.00,> 3200,< 6.00,> 3200,–
"CCc1ccccc1Oc1ccc(CO)c(N2CC[C@H](Oc3ccc(C(F)(F)F)cn3)C2)c1 [Compound 1-228, (S)-(4-(2-ethylphenoxy)-2-(3-(5-(trifluoromethyl)pyridin-2-yloxy)pyrrolidin-1-yl)phenyl)methanol]",no fit (5 min) no fit (30 min),no fit (5 min) no fit (30 min),7.00 to 8.00,62.1,–,–,–
"Nc1ccccc1N1CC[C@H](Oc2ccc3cc(Cl)ccc3n2)C1 [Compound 1-69, (S)-2-(3-(6-chloroquinolin-2-yloxy)pyrrolidin-1-yl)aniline]",no fit (5 in),–,–,–,–,–,hTRPV3 (nM) (Phase 2) ([2]; Phase 2 current): Agonist (Phase 2)
